According to patent publication US8450522B2, “Conformationally constrained carboxylic acid derivatives useful for treating metabolic disorders” (Amgen Inc., priority 2008, dated 2013):

Experiments:
GPR40 [1] = target: T1, GPR40 (Homo sapiens, UniProt O14842); assay: Cell-based aequorin assay (CHO cells stably transfected with GPR40 and aequorin); design: expressed in transfected cells; settings: activation of human GPR40, CHO cells, 0.01% HSA
Description: Briefly, the Aequorin assays were performed on doubly stable CHO cells expressing GPR40 and Aequorin DNA. […] The luminescence was recorded over a period of 20 seconds with a Microlumat luminometer (Berthold).
Cell-based aequorin assays were employed to characterize the modulatory activity of compounds on the GPR40 signaling pathway. In an exemplary assay, CHO cells were stably transfected with both GPR40 and Aequorin (Euroscreen). Cells were detached from the tissue culture dish with 2 mL of trypsin (0.25% (w/v)). Trypsinization was halted with 28 mL of Hanks Buffered Salt Solution containing 20 mM Hepes (H/HBSS) and 0.01% fatty acid-free human serum albumin (HSA). Coelantrazine is added to 1 ug/mL, and the cells were incubated for 2 hours at room temperature. Compounds were dissolved in DMSO for preparation of 10 mM stock solutions. Compounds were diluted in H/HBSS containing 0.01% HSA. Serial dilutions of the test compounds were prepared to determine dose response.
Aequorin luminescence measurements were made using an EG&G Berthold 96-well luminometer, and the response was measured over a 20 second interval after cells and compounds were mixed. The maximum relative light units was plotted to determine dose response. The EC50 (effective concentration to reach 50% maximal response) was determined from the dose response plot.

GPR40 [2] = target: T1, GPR40; assay: Inositol phosphate accumulation assay (A9 cell line stably transfected with GPR40); format: cell-based; design: expressed in transfected cells; settings: human GPR40, A9_GPR40 cells, 1 hour at 37° C.; read-out: IP3 EC50 (inositol phosphate assay data)
Description: An A9 cell line stably transfected with GPR40 (A9_GPR40) was used in IP accumulation assays. A9_GPR40 cells were plated in 96-well plates containing 20,000 cells/well in DMEM containing 10% FBS. After the cells attached to the well surface, the media was replaced with inositol free DMEM containing 10% dialyzed FBS and 1 μCi, mL ^3H-inositol and incubated for 16 hours. Compounds were diluted in HBSS/10 mM LiCl containing a desired amount of HSA and added directly to cells. Following 1 hour incubation at 37° C., the media was replaced with 100 μl of 20 mM formic acid to quench the reaction. 50 μL of the extract was then added to 100 μL of SPA beads, incubated overnight, and measured on a TopCount the following day.

T1 sequence (O14842 whole entry): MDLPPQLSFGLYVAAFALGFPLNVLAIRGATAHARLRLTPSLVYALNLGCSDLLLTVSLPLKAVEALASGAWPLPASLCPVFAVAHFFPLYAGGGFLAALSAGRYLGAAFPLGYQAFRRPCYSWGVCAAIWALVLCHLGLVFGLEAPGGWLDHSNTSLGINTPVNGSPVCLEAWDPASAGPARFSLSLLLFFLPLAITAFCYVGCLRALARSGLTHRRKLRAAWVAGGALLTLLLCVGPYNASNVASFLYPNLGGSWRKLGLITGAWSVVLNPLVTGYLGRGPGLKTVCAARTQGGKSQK

Compound	EC50 (GPR40 [1]) [nM]	EC50 (GPR40 [2]) [nM]
CC[C@]1(CC(=O)O)CCc2ccc(OCc3ccc(-c4cc(OC)ccc4F)c([C@@H](OC)C(C)(C)C)c3)cc21 (single isomer, unassigned) [Example 45]	100 to 1000	100 to 1000
COc1ccc(F)c(-c2ccc(COc3ccc4c(c3)[C@](C)(CC(=O)O)CC4)cc2[C@H]2CCCC2(C)C)c1 (single isomer, unassigned) [Example 18, {(S)-6-[2-((S)-2,2-Dimethyl-cyclopentyl)-2′-fluoro-5′-methoxy-biphenyl-4-ylmethoxy]-1-methyl-indan-1-yl}-acetic acid or diastereomer thereof]	100 to 1000	10 to 100
COc1cc(-c2cc(F)c(COc3ccc4c(c3)[C@@](C)(CC(=O)O)CC4)cc2[C@H]2CCCC2(C)C)c(F)cn1 (single isomer, unassigned) [Example 34, ((1R)-6-((5-((1S)-2,2-Dimethylcyclopentyl)-2-fluoro-4-(5-fluoro-2-methoxy-4-pyridinyl)benzyl)oxy)-1-methyl-2,3-dihydro-1H-inden-1-yl)acetic acid or ((1R)-6-((5-((1R)-2,2-dimethylcyclopentyl)-2-fluoro-4-(5-fluoro-2-methoxy-4-pyridinyl)benzyl)oxy)-1-methyl-2,3-dihydro-1H-inden-1-yl)acetic acid]	100 to 1000	< 10
COc1cc(-c2ccc(COc3ccc4c(c3)[C@@](C)(CC(=O)O)CC4)cc2[C@@H]2CCCC2(C)C)c(F)cn1 (single isomer, unassigned) [Example 20, {(R)-6-[3-((S)-2,2-Dimethyl-cyclopentyl)-4-(5-fluoro-2-methoxy-pyridin-4-yl)-benzyloxy]-1-methyl-indan-1-yl}-acetic acid or diastereomer thereof]	100 to 1000	< 10
COc1ccc(F)c(-c2ccc(COc3ccc4c(c3)[C@@H](CC(=O)O)CCC4)cc2C(C)(C)C)c1 (single isomer, unassigned) [Example 6, (R)-2-(7-(3-t-Butyl-4-(2-fluoro-5-methoxyphenyl)benzyloxy)1,2,3,4-tetrahydronaphthalen-1-yl)acetic acid or (S)-2-(7-(3-t-butyl-4-(2-fluoro-5-methoxyphenyl)benzyloxy)1,2,3,4-tetrahydronaphthalen-1-yl)acetic acid]	100 to 1000	100 to 1000

Next, values leading:

EC50 (GPR40 [1]) [nM]	EC50 (GPR40 [2]) [nM]	Compound
100 to 1000	10 to 100	COc1ccc(F)c(-c2ccc(COc3ccc4c(c3)[C@H]([C@@H](C)C(=O)O)CC4)cc2[C@H]2CCCC2(C)C)c1 [Example 15]
10 to 100	< 10	COc1ccc(F)c(-c2cc(F)c(COc3ccc4c(c3)[C@@](C)(CC(=O)O)CC4)cc2[C@H]2CCCC2(C)C)c1 (single isomer, unassigned) [Example 33, ((1R)-6-((2-((1S)-2,2-Dimethylcyclopentyl)-2′,5-difluoro-5′-methoxy-4-biphenylyl)methoxy)-1-methyl-2,3-dihydro-1H-inden-1-yl)acetic acid or ((1R)-6-((2-((1R)-2,2-dimethylcyclopentyl)-2′,5-difluoro-5′-methoxy-4-biphenylyl)methoxy)-1-methyl-2,3-dihydro-1H-inden-1-yl)acetic acid]
100 to 1000	10 to 100	CC[C@]1(CC(=O)O)CCc2ccc(OCc3ccc(-c4cc(OC)ccc4F)c([C@H]4CCCC4(C)C)c3)cc21 (single isomer, unassigned) [Example 42]
100 to 1000	< 10	COc1ccc(F)c(-c2ccc(COc3ccc4c(c3)[C@@](C)(CC(=O)O)CC4)cc2[C@@H]2CCCC2(C)C)c1 (single isomer, unassigned) [Example 19, {(R)-6-[2-((S)-2,2-Dimethyl-cyclopentyl)-2′-fluoro-5′-methoxy-biphenyl-4-ylmethoxy]-1-methyl-indan-1-yl}-acetic acid or diastereomer thereof]
